In US7214659B2, “Reduction of the electrocardiographic QT interval” (Creative Peptides Sweden AB, priority 2000, dated 2007):

Key:
[1] = Plasma C-peptide and blood glucose levels during 3 h i.v. C-peptide infusion (Example 1); format: in vivo; details: both sexes, human, iv, during the C-peptide infusion, 6 pico mole per kg per minute i.v. for 180 minutes, 0.11±0.02 nmol/l before the study
Text: In this study 12 IDDM patients (six male and six female) with autonomic neuropathy participated in two different sessions in a randomized, double-blind study (one patient attended one time only). Their mean age was 40 and mean duration of diabetes was 21 years. In eight patients the fasting plasma C-peptide levels were below the detection limit (<0.10 nmol/l), the remaining four varied between 0.13 and 0.25 nmol/l. Eleven patients had decreased heart rate variability during deep breathing as evidence of autonomic neuropathy. On each occasion they received insulin i.v. for 9–12 hours before the study and blood glucose levels were tested every 1–2 hours during the night. The insulin infusion was adjusted to achieve euglycaemia (5–6 mmol/l). The patients were then given either saline or C-peptide i.v. for 180 minutes. 6 pico mole per kg per minute was administered.

[2] = system: IDDM patients with autonomic neuropathy; experiment: QTc interval during 3 h i.v. C-peptide infusion, randomized double-blind study (Example 1); format: in vivo, human; details: during three hours of C-peptide i.v., 6 pico mole per kg per minute; basal QTc 0.429±0.004s; decreased significantly, p<0.05
Description: The QTc interval will vary from patient to patient but can generally be considered prolonged when it exceeds 420 ms in men and 430 ms in women. QTc is the corrected (for heart rate influence) QT interval. It is calculated according to Bazett's formula (QTc=QT/√{square root over (R)}R). QT and RR are conveniently measured using a ruler on an ECG tracing; the QT interval is measured from the beginning of the QRS complex to the end of the crossing of the isoelectric line of the T wave, see the stylised representation in FIG. 1. Any reduction in the interval can be beneficial to the patient, preferably the interval will be reduced by at least 3 ms, more preferably treatment will reduce the QTc interval by at least 5 ms, particularly preferably at least 8 ms even at least 10 ms. […]
Before and during the three hour session a complete 12 lead electrocardiogram was recorded to evaluate heart rate variability during deep breathing. […] The […] (one patient could not take part in a second session and one patient's ECG tracing was not possible to evaluate) were analyzed blindly by two persons. The RR and QT interval were measured with a ruler. […] Five intervals from the precordial leads and five intervals from the extremity leads were measured on each occasion and a mean was calculated. […]

[3] = system: patients with IDDM; experiment: QTc interval during 3 h C-peptide infusion, randomised double blind study (Example 3); format: in vivo, human; details: infused for 3 hours; NaCl placebo; FIG. 4
Description: Twelve patients were investigated twice in a randomised double blind study where C-peptide or a NaCl placebo were infused for 3 hours. The same procedure as described in Example 1 was followed.

[4] = system: IDDM patients; experiment: QTc interval after 3 months of s.c. C-peptide, randomised cross over study (Example 2); format: in vivo, human; details: 6 patients with prolonged QTc interval at the outset (>420 ms), 600 nmol per 24 h s.c. in 3 doses
Description: In a further study (different results from which were published in Diabetic Medicine, Vol. 17 (2000) p. 181–189, Johannson, Bo-Lennart et al.) 21 IDDM patients were monitored for 6 months according to a randomised cross over regimen wherein C-peptide was administered for 3 months and a placebo.
Further details of the study can be found in the above referenced paper in Diabetic Medicine but in summary, biosynthetic human C-peptide (Eli Lilly Co.) or a placebo comprising just the C-peptide solvent was injected sub-cutaneously 3 times per day. The total 24 h dose of C-peptide was 600 nmol (225 nmol 30 mins before breakfast, 150 nmol before dinner and 225 nmol at bedtime).
ECGs were recorded at the start of the programme and after 3 and then 6 months of the study. These recordings were then used to measure the QTc interval as described in Example 1.

- level at time molar [1]: 1.73 ± 0.04 nM
SMILES: CC(C)C[C@H](NC(=O)[C@H](C)NC(=O)[C@H](CC(C)C)NC(=O)[C@@H]1CCCN1C(=O)[C@H](CCC(N)=O)NC(=O)[C@H](CC(C)C)NC(=O)[C@H](CO)NC(=O)CNC(=O)[C@H](C)NC(=O)CNC(=O)[C@@H]1CCCN1C(=O)CNC(=O)CNC(=O)CNC(=O)[C@H](CC(C)C)NC(=O)[C@H](CCC(=O)O)NC(=O)[C@@H](NC(=O)[C@H](CCC(N)=O)NC(=O)CNC(=O)[C@@H](NC(=O)[C@H](CCC(N)=O)NC(=O)[C@H](CC(C)C)NC(=O)[C@H](CC(=O)O)NC(=O)[C@H](CCC(=O)O)NC(=O)[C@H](C)NC(=O)[C@@H](N)CCC(=O)O)C(C)C)C(C)C)C(=O)N[C@@H](CCC(=O)O)C(=O)NCC(=O)N[C@@H](CO)C(=O)N[C@@H](CC(C)C)C(=O)N[C@@H](CCC(N)=O)C(=O)O [C-peptide]
- mean QTc interval [2]: 0.422 ± 0.006 s
- QTc interval during C-peptide treatment compared to placebo [3]: decrease in QTc interval
- QTc interval, C-peptide phase compared to placebo phase [4]: clear shortening of the QTc interval
